Values quoted from earlier work, collected in article PMC7414093 (Proceedings of the National Academy of Sciences of the …, 2020).
Numbered stars: 1 amine (or outer) side, 2 acyl side, 3 side chain; on linkers, the order of the positions; unused ones are H or OH. Bridge positions count the residues as written; N and C are the ends. Square brackets hold non-standard residues; d marks the D form. Peptide text beside a SMILES is read from it. Phe(3,4-Cl2) = N[C@@H](Cc1ccc(Cl)c(Cl)c1)C(=O)O; X1 = NCCC(=O)N[C@@H](CN[*:2])C(=O)[*:1]; hhPhe = N[C@@H](CCCc1ccccc1)C(=O)O; NMeL = CN[C@@H](CC(C)C)C(=O)O; Orn = NCCC[C@H](N)C(=O)O

Test system: HA
Parameters: method as in PMID 28971971
Settings: AlphaLISA, HB80.4 as competitor for HA binding; cited from earlier work

## CC(=O)N[C@@H](CCCc1ccccc1)C(=O)N[C@H]1CCCNC(=O)[C@@H](NC(=O)CCN)CNC(=O)[C@H](CO)NC(=O)[C@H](CC(C)C)NC(=O)[C@H](Cc2c[nH]c3ccccc23)NC(=O)[C@H](CCC(=O)O)NC(=O)[C@H](Cc2ccc(Cl)c(Cl)c2)NC(=O)[C@H](Cc2ccc(O)cc2)NC(=O)[C@H](CCC(=O)O)NC(=O)[C@H](CC(C)C)N(C)C1=O [P7] (Ac-[hhPhe][Orn][NMeL]EY[Phe(3,4-Cl2)]EWLS; linker 2-C via X1)
  EC50: 30 to 70 nM
